Data: ChEMBL document CHEMBL1134190, “Synthesis of substituted 4(Z)-(methoxyimino)pentyl-1-piperidines as dual NK1/NK2 inhibitors” (Bioorg Med Chem Lett, 2001)

Legend:
Substance-K receptor = target: T1, Substance-K receptor (Homo sapiens, UniProt P21452); assay: Binding affinity towards NK2 receptor
T1 sequence (P21452 whole entry): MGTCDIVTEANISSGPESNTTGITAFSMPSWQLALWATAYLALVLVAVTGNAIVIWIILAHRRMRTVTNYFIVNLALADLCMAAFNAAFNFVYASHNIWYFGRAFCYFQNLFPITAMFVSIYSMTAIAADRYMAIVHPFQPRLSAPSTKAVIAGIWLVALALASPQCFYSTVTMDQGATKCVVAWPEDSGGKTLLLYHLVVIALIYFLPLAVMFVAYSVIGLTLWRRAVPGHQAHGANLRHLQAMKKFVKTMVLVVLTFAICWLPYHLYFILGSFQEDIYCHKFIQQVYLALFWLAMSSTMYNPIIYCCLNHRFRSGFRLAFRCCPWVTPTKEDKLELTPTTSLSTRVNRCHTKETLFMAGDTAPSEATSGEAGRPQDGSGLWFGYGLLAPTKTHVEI

Substance-P receptor = Substance-P receptor (Homo sapiens, UniProt P25103); assay: Binding affinity towards NK1 receptor
Chain of Substance-P receptor (P25103 whole entry): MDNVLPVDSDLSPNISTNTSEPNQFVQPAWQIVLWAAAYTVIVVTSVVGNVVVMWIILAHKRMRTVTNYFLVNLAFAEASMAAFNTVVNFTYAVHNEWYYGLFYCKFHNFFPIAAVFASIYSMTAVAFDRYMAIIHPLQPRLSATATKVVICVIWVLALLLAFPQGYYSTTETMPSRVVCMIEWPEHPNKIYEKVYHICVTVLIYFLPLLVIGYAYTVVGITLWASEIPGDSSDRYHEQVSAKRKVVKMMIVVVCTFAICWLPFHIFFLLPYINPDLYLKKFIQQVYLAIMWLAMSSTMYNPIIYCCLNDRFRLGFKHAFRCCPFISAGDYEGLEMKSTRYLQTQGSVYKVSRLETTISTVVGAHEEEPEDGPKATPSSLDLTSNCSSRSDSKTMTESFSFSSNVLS

SMILES | Ki (Substance-K receptor) [nM] | Ki (Substance-P receptor) [nM]
CO/N=C(\COCc1cc(C(F)(F)F)cc(C(F)(F)F)c1)C(CCN1CCC(CN2CCCCC2CO)CC1)c1ccc(Cl)c(Cl)c1 (stereo not drawn) | 53 | 20
CO/N=C(\COCc1cc(C(F)(F)F)cc(C(F)(F)F)c1)C(CCN1CCC(N2CCC(OC(=O)NC(C)C)C2)CC1)c1ccc(Cl)c(Cl)c1 (stereo not drawn) | 67 | 19
CO/N=C(\COCc1cc(C(F)(F)F)cc(C(F)(F)F)c1)C(CCN1CCC(CN2CCCCC2)CC1)c1ccc(Cl)c(Cl)c1 (stereo not drawn) | 26 | 36
CO/N=C(\COCc1cc(C(F)(F)F)cc(C(F)(F)F)c1)C(CCN1CCC(CNC2(CO)CCCC2)CC1)c1ccc(Cl)c(Cl)c1 (stereo not drawn) | 16 | 24
CO/N=C(\COCc1cc(C(F)(F)F)cc(C(F)(F)F)c1)C(CCN1CCC(CN2CCCC(CC3CC3)C2=O)CC1)c1ccc(Cl)c(Cl)c1 (stereo not drawn) | 26 | 14
CO/N=C(\COCc1cc(C(F)(F)F)cc(C(F)(F)F)c1)C(CCN1CCC(CN2CCCC(OC(=O)NC(C)C)C2)CC1)c1ccc(Cl)c(Cl)c1 (stereo not drawn) | 33 | 17
C=CCC1CCCN(CC2CCN(CCC(/C(COCc3cc(C(F)(F)F)cc(C(F)(F)F)c3)=N/OC)c3ccc(Cl)c(Cl)c3)CC2)C1=O (stereo not drawn) | 58 | 13
CO/N=C(\COCc1cc(C(F)(F)F)cc(C(F)(F)F)c1)C(CCN1CCC(CN2CCCC(CO)C2)CC1)c1ccc(Cl)c(Cl)c1 (stereo not drawn) | 39 | 50
CO/N=C(\COCc1cc(C(F)(F)F)cc(C(F)(F)F)c1)C(CCN1CCC(CN2CCCC(Cc3ccccc3)C2=O)CC1)c1ccc(Cl)c(Cl)c1 (stereo not drawn) | 91 | 69
CO/N=C(\COCc1cc(C(F)(F)F)cc(C(F)(F)F)c1)C(CCN1CCC(CN2CCCC(CC(O)CO)C2=O)CC1)c1ccc(Cl)c(Cl)c1 (stereo not drawn) | 16 | 7
CO/N=C(\COCc1cc(C(F)(F)F)cc(C(F)(F)F)c1)C(CCN1CCC(NC(=O)c2ccccc2)CC1)c1ccc(Cl)c(Cl)c1 (stereo not drawn) | 144 | 18
CO/N=C(\COCc1cc(C(F)(F)F)cc(C(F)(F)F)c1)C(CCN1CCC(CN2CCOCC2)CC1)c1ccc(Cl)c(Cl)c1 (stereo not drawn) | 39 | 14
CO/N=C(\COCc1cc(C(F)(F)F)cc(C(F)(F)F)c1)C(CCN1CCC(NC(=O)C2CCCCC2)CC1)c1ccc(Cl)c(Cl)c1 (stereo not drawn) | 146 | 44
CO/N=C(\COCc1cc(C(F)(F)F)cc(C(F)(F)F)c1)C(CCN1CCC(CNC(=O)c2ccccc2)CC1)c1ccc(Cl)c(Cl)c1 (stereo not drawn) | 137 | 112
CO/N=C(\COCc1cc(C(F)(F)F)cc(C(F)(F)F)c1)C(CCN1CCC(CN2CCCC(O)C2)CC1)c1ccc(Cl)c(Cl)c1 (stereo not drawn) | 47 | 38
CO/N=C(\COCc1cc(C(F)(F)F)cc(C(F)(F)F)c1)C(CCN1CCC(CN2CCCCC2CCO)CC1)c1ccc(Cl)c(Cl)c1 (stereo not drawn) | 14 | 13
CO/N=C(\COCc1cc(C(F)(F)F)cc(C(F)(F)F)c1)C(CCN1CCC(CN2CCCC(C(N)=O)C2)CC1)c1ccc(Cl)c(Cl)c1 (stereo not drawn) | 27 | 25
CCOC(=O)C1CCCN(CC2CCN(CCC(/C(COCc3cc(C(F)(F)F)cc(C(F)(F)F)c3)=N/OC)c3ccc(Cl)c(Cl)c3)CC2)C1 (stereo not drawn) | 28 | 16
CCOC(=O)C1CCCN(C2CCN(CCC(/C(COCc3cc(C(F)(F)F)cc(C(F)(F)F)c3)=N/OC)c3ccc(Cl)c(Cl)c3)CC2)C1 (stereo not drawn) | 20 | 117

Next, values leading:

Ki (Substance-K receptor) [nM] | Ki (Substance-P receptor) [nM] | SMILES
67 |  | CO/N=C(\COCc1cc(C(F)(F)F)cc(C(F)(F)F)c1)C(CCN1CCC(C(N)=O)CC1)c1ccc(Cl)c(Cl)c1 (stereo not drawn)
11 | 13 | CO/N=C(\COCc1cc(C(F)(F)F)cc(C(F)(F)F)c1)C(CCN1CCC(N2CCC[C@H]2C(N)=O)CC1)c1ccc(Cl)c(Cl)c1 (stereo partly drawn)
195 | 36 | CO/N=C(\COCc1cc(C(F)(F)F)cc(C(F)(F)F)c1)C(CCN1CCC(N2CCCC2)CC1)c1ccc(Cl)c(Cl)c1 (stereo not drawn)
21 | 8 | CO/N=C(\COCc1cc(C(F)(F)F)cc(C(F)(F)F)c1)C(CCN1CCC(CN2CCCC2=O)CC1)c1ccc(Cl)c(Cl)c1 (stereo not drawn)
15 | 14 | CO/N=C(\COCc1cc(C(F)(F)F)cc(C(F)(F)F)c1)C(CCN1CCC(N2CCCCC2CO)CC1)c1ccc(Cl)c(Cl)c1 (stereo not drawn)
59 | 6 | CO/N=C(\COCc1cc(C(F)(F)F)cc(C(F)(F)F)c1)C(CCN1CCC(C(=O)N2CCCC2)CC1)c1ccc(Cl)c(Cl)c1 (stereo not drawn)
12 | 10 | CO/N=C(\COCc1cc(C(F)(F)F)cc(C(F)(F)F)c1)C(CCN1CCC(CN2CCCCC2=O)CC1)c1ccc(Cl)c(Cl)c1 (stereo not drawn)
23 | 16 | CO/N=C(\COCc1cc(C(F)(F)F)cc(C(F)(F)F)c1)C(CCN1CCC(N2CCCC2=S)CC1)c1ccc(Cl)c(Cl)c1 (stereo not drawn)
11 | 13 | CO/N=C(\COCc1cc(C(F)(F)F)cc(C(F)(F)F)c1)C(CCN1CCC(N2CCCC(C(N)=O)C2)CC1)c1ccc(Cl)c(Cl)c1 (stereo not drawn)
4 | 18 | CO/N=C(\COCc1cc(C(F)(F)F)cc(C(F)(F)F)c1)C(CCN1CCC(N2CCCCC2=O)CC1)c1ccc(Cl)c(Cl)c1 (stereo not drawn)
16 | 4 | CO/N=C(\COCc1cc(C(F)(F)F)cc(C(F)(F)F)c1)C(CCN1CCC(N2CCC(O)C2)CC1)c1ccc(Cl)c(Cl)c1 (stereo not drawn)
7 | 9 | CO/N=C(\COCc1cc(C(F)(F)F)cc(C(F)(F)F)c1)C(CCN1CCC(N2CCCC2=O)CC1)c1ccc(Cl)c(Cl)c1 (stereo not drawn)
23 | 20 | CO/N=C(\COCc1cc(C(F)(F)F)cc(C(F)(F)F)c1)C(CCN1CCC(CN2CCCCC2=S)CC1)c1ccc(Cl)c(Cl)c1 (stereo not drawn)
